One may read the inhibition as the relative decrease from the control value, in per cent. The term IC50 denotes the concentration at which inhibition is half-maximal. The term ED50 denotes the dose that gives a 50% effect, or the effect in half of the subjects. High values mean a need for a large dose, low ones an effect at a small dose. As a reminder, the Inhibition is the change of the read-out against control, counted positive when it falls. Read a low Inhibition as a weak effect.

From ChEMBL document CHEMBL1133789, “The discovery of anthranilic acid-based MMP inhibitors. Part 1: SAR of the 3-position” (Bioorg Med Chem Lett, 2001) come the findings set out here.

Active and inactive are the calls of the source.

Experiment [1] concerns the target T1, Interstitial collagenase (Homo sapiens) (UniProt P03956).
T1 sequence (whole entry): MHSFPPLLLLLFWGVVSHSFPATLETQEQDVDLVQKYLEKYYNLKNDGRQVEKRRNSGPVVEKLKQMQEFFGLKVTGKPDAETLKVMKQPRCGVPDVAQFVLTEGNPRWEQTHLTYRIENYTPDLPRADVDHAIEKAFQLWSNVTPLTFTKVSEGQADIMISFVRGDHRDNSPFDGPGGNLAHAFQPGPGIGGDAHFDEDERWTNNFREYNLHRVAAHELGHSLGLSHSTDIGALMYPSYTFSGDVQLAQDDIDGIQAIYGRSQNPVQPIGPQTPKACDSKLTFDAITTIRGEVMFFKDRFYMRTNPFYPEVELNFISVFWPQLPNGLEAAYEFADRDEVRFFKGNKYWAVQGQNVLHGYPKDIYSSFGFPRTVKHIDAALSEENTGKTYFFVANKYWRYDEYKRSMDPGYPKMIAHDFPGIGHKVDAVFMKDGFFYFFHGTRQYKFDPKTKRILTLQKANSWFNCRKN
Nature of the experiment: Inhibition of Matrix metalloprotease-1 (inactive).

Experiment [2] concerns the target T2, Matrix metalloproteinase-9 (Homo sapiens, UniProt P14780). Nature of the experiment: Inhibitory activity against Matrix metalloprotease-9.
Experiment [3] is filed under the species Bos taurus. In words: animal or person. The settings on record: po, read-out: Inhibition.
The test system of the next experiment is Rattus norvegicus. In words: In vivo inhibition of collagen degradation in a rat sponge wrapped cartilage model at a dose of 50 mg/kg ip. In kind it is functional. Particulars: route intraperitoneal.
The target in the next experiment is T3, Interstitial collagenase (Homo sapiens, UniProt P03956).
T3 sequence (P03956 whole entry): T1 sequence (whole entry)
Nature of the experiment: Inhibitory activity against Matrix metalloprotease-1.

In experiment [4] the target is T2, Matrix metalloproteinase-9. In words: Tested the po dose effective against Matrix metalloprotease-9 in the dialysis tubing implant assay. In kind it is functional, organism-based.
In experiment [5] the target is T2, Matrix metalloproteinase-9. Nature of the experiment: Dose at which the compound was equipotent with CGS-27023 against matrix metalloprotease-9 in the dialysis tubing implant assay. Format: functional.
The species entered for experiment [6] is Bos taurus. In words: Inhibition of collagen degradation in a bovine articular cartilage assay. Format: functional.
A further experiment concerns the target Collagenase 3 (Homo sapiens, UniProt P45452).
For experiment [7], the target named is T1, Interstitial collagenase (Homo sapiens). In words: Inhibition of Matrix metalloprotease-1 at 1 uM.
For experiment [8] the target is unchanged. In words: Inhibition of Matrix metalloprotease-1 at 1 uM (inactive).
For experiment [9], the target named is Disintegrin and metalloproteinase domain-containing protein 17 (Homo sapiens, UniProt P78536).
Sequence of Disintegrin and metalloproteinase domain-containing protein 17 (P78536 whole entry, the tested form may be a part): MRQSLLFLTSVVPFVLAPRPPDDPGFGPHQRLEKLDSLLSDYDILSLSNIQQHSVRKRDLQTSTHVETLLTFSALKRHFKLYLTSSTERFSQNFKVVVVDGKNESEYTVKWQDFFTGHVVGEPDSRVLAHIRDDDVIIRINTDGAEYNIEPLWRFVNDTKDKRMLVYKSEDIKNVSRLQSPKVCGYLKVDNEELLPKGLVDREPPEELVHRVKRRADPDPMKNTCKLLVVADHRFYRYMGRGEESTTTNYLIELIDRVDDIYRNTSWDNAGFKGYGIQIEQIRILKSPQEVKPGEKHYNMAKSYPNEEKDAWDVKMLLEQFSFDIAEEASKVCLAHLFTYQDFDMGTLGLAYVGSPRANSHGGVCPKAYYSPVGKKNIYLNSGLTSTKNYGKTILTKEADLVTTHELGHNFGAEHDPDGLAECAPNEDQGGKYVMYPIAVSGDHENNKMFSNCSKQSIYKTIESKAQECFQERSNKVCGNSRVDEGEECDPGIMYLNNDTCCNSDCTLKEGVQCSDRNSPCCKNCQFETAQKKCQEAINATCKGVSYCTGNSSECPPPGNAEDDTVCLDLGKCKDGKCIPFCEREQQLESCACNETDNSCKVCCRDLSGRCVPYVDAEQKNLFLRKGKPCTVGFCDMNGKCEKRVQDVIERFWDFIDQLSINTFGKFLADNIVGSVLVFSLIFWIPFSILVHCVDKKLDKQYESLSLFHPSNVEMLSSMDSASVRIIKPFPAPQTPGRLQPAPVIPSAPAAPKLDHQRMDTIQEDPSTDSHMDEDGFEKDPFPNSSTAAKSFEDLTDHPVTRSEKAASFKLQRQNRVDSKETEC
Description: Inhibition of TNF-alpha converting enzyme (TACE)

T2 sequence (P14780 whole entry): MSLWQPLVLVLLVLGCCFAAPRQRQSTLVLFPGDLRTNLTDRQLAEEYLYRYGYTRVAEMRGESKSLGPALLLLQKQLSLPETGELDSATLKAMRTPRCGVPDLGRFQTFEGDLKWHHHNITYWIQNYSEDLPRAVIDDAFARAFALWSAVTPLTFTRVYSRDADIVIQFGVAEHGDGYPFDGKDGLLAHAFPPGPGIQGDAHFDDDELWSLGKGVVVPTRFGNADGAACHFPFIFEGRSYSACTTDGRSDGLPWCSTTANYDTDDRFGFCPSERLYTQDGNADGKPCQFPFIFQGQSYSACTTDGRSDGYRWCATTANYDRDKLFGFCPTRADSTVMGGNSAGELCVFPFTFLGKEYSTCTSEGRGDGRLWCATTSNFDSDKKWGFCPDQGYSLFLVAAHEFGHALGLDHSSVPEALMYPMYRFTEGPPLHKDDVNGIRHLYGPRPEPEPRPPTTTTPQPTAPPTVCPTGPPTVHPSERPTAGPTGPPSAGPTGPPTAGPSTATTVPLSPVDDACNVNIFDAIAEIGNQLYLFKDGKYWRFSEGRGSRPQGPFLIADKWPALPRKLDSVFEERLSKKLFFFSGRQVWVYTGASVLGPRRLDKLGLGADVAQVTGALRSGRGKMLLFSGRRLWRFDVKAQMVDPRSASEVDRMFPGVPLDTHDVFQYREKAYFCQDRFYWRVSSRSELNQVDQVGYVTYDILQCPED
Description for Collagenase 3: Inhibitory activity against Matrix metalloprotease-13

Take `COc1ccc(S(=O)(=O)N(Cc2ccccc2)c2ccc(C(=O)NO)cc2)cc1`: in experiment [1], the inhibition entry is “inactive”.

On to `COC(=O)c1cccc(C(=O)NO)c1N(Cc1cccnc1)S(=O)(=O)c1ccc(OC)cc1`, for which the IC50 in [2] was 6 nM.

`COc1ccc(S(=O)(=O)N(Cc2cccnc2)[C@@H](C(=O)NO)C(C)C)cc1` [CGS-27023A]: the inhibition in vivo at 50 mg/kg in the experiment listed under Bos taurus [3] is 52%. `COc1ccc(S(=O)(=O)N(Cc2cccnc2)c2c(C)cccc2C(=O)NO)cc1` came in with an inhibition in vivo at 50 mg/kg in the experiment on Rattus norvegicus of 51%. For the same molecule, the IC50 on Interstitial collagenase turned out to be 143 nM. This molecule also returned an ED50 in experiment [4] of 33 mg/kg. The DOSE in [5] worked out at 50 mg/kg. Besides, in the experiment filed under Bos taurus [6], the Inhibition was 49%.

On to `COc1ccc(S(=O)(=O)N(Cc2ccccc2)c2c(C(=O)NO)cccc2[N+](=O)[O-])cc1`, for which the IC50 at Interstitial collagenase was 202 nM; against Collagenase 3, 42 nM; in [2] it was 13 nM. As for `COc1ccc(S(=O)(=O)N(Cc2ccccc2)c2c(C(=O)NO)cccc2C(F)(F)F)cc1`, inhibition against Collagenase 3 was half-maximal at 136 nM (IC50). Also, the inhibition in [7] was determined as 41%. Take `COc1ccc(S(=O)(=O)N(Cc2ccccc2)c2cccc(C(=O)NO)c2)cc1`: in experiment [8], the inhibition result was “inactive”. `COc1ccc(S(=O)(=O)N(Cc2ccccc2)c2c(OCC(=O)NO)cccc2C(=O)NO)cc1`: the IC50 in experiment [9] was 81 nM; against Collagenase 3 it was 1 nM; in experiment [2] it was 2 nM. Regarding `COc1ccc(S(=O)(=O)N(Cc2ccccc2)c2c(OC(C)(C)C(=O)NO)cccc2C(=O)NO)cc1`, the figures for the half-maximal inhibitory concentration (IC50) (on Interstitial collagenase; in [2]) were 597 nM and 4 nM, respectively.

At Interstitial collagenase, `COc1ccc(S(=O)(=O)N(Cc2ccccc2)c2c(OC)cccc2C(=O)NO)cc1` returned an IC50 of 520 nM. This lies in the sub-micromolar range.

Take `COc1ccc(S(=O)(=O)N(Cc2ccccc2)c2c(C(=O)NO)cccc2N(C)C)cc1`: the inhibition in [7] was 19%.
